Counter-ions that a name gives are not always drawn.
The compounds below were run against T1, Flag/GST-tagged recombinant human B-Raf (Homo sapiens, UniProt P15056) (assay: B-Raf kinase assay (phosphorylation of GST-MEK1, phospho-MEK1 antibody/Europium detection)). Details: B-Raf IC50 Data for compounds of Formula A; read-out: Mean IC50.
T1 construct: Flag; GST; made in house; host or cells: Sf9 insect cells (B-Raf); E. coli (MEK1-GST)
Type: biochemical
Protocol: B-Raf1 Kinase Assay Procedure: B-Raf-1 is used to phosphorylate GST-MEK1.
• 1. Assay Dilution Buffer (ADB): 20 mM MOPS, pH 7.2, 25 mM β-glycerol phosphate, 5 mM EGTA, 1 mM sodium orthovanadate, 1 mM dithiothreitol, 0.01% Triton X-100. • 2. Magnesium/ATP Cocktail: ADB solution (minus Triton X-100) plus 200 μM cold ATP and 40 mM magnesium chloride. • 4. Active Kinase: Active B-Raf: Used at 0.2 nM per assay point. • 5. […] TBST—Tris (50 mM, pH 7.5), NaCl (150 mM), Tween-20 (0.05%) • 7. Anti-GST Ab (GE) • 8. Anti pMEK Ab (Upstate) • 9. Anti-rabbit Ab/Europium conjugate (Wallac).
B-Raf Assay Procedure: • 1. Added 25 μL of ADB containing B-Raf and Mek per assay (i.e. per well of a 96 well plate) • 2. Added 25 μL of 0.2 mM ATP and 40 mM magnesium chloride in Magnesuium/ATP Cocktail. • 3. Incubated for 45 minutes at RT with occasional shaking. • 4. Transferred this mixture to an anti-GST Ab coated 96 well plate (Nunc Immunosorb plates coated o/n with a-GST. Plate freshly washed 3×with TBS-T before use. • 5. Incubated o/n at […] in cold room. • 6. Washed 3× with TBST, ed Anti-Phospho MEK1 (1:1000, dilution depended upon lot) • 7. Incubated for 60 minutes at RT in a shaking incubator • 8. Washed 3× with TBST, add Anti-rabbit Ab/Europium conjugate (Wallac) (1:500, dilution depended upon lot) • 9. Incubated for 60 minutes at RT on a platform shaker. • 10. Washed plate 3× with TBS-T • 11. Added 100 μL of Wallac Delfia Enhancement Solution and agitated for 10 minutes. • 12. Read plates in Wallac Victor model Plate Reader. • 13.
The % inhibition was determined for each compound concentration.

T1 sequence (P15056 whole entry): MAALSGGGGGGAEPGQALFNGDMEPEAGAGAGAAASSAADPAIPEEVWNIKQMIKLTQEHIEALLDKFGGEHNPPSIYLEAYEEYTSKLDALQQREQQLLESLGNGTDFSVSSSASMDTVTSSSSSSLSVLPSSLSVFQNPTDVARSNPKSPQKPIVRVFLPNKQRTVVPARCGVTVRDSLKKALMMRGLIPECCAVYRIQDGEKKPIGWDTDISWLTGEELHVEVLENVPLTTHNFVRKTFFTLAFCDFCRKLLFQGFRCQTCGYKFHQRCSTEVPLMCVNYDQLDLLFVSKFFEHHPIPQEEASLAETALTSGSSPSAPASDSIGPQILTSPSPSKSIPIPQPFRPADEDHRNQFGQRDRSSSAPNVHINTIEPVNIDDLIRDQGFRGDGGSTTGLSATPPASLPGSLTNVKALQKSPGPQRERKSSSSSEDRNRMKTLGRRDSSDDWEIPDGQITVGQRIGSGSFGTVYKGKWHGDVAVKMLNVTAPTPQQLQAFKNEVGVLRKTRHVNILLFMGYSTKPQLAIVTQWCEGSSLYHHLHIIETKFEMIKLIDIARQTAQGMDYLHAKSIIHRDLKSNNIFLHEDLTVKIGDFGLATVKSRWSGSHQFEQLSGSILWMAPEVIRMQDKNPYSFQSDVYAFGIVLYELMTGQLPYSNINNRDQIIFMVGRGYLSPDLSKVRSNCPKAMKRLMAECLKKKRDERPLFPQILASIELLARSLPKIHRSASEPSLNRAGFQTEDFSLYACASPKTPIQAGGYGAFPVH

| SMILES | IC50 [nM] |
| --- | --- |
| CCOC(=O)N1C2CCC1CC(c1ccnc3c(-c4ccc(Cl)c(O)c4)c(-c4ccncc4)nn13)C2 (centres unmarked) [Example 11, Ethyl 3-(3-(4-chloro-3-hydroxyphenyl)-2-(pyridin-4-yl)pyrazolo[1,5-a]pyrimidin-7-yl)-8-azabicyclo[3.2.1]octane-8-carboxylate] | 2 |
| COc1cccc(-c2c(-c3ccncc3)nn3c(-c4ccc(N5C[C@@H]6C[C@H]5CN6)cc4)ccnc23)c1 [Example 28, 7-[4-((1S,4S)-2,5-Diaza-bicyclo[2.2.1]hept-2-yl)-phenyl]-3-(3-methoxy-phenyl)-2-pyridin-4-yl-pyrazolo[1,5-a]pyrimidine] | 16 |
| CN1C[C@@H]2C[C@H]1CN2c1ccc(-c2ccnc3c(-c4ccc(F)c5[nH]ncc45)c(-c4ccncc4)nn23)cn1 [Example 42, 3-(7-Fluoro-1H-indazol-4-yl)-7-(6-((1S,4S)-5-methyl-2,5-diazabicyclo[2.2.1]heptan-2-yl)pyridin-3-yl)-2-(pyridin-4-yl)pyrazolo[1,5-a]pyrimidine] | 0.4 |
| CCN1C[C@@H]2C[C@H]1CN2c1cc(F)c(-c2ccnc3c(-c4cccc5[nH]ncc45)c(-c4ccncc4)nn23)c(F)c1 [Example 167, 7-{4-[(1S,4S)-5-ethyl-2,5-diazabicyclo[2.2.1]hept-2-yl]-2,6-difluorophenyl}-3-(1H-indazol-4-yl)-2-pyridin-4-ylpyrazolo[1,5-a]pyrimidine] | < 0.3 |
| c1cc(-c2c(-c3ccncc3)nn3c(-c4ccc(N5C[C@@H]6C[C@H]5CN6)cc4)ccnc23)c2cn[nH]c2c1 [Example 51, 7-(4-((1S,4S)-2,5-Diazabicyclo[2.2.1]heptan-2-yl)phenyl)-3-(1H-indazol-4-yl)-(pyridin-4-yl)pyrazolo[1,5-a]pyrimidine] | 0.8 |
| CC(C)(C)OC(=O)N1C[C@@H]2C[C@H]1CN2Cc1cc(-c2ccnc3c(-c4cccc5[nH]ncc45)c(-c4ccncc4)nn23)co1 [Example 194, tert-butyl (1S,4S)-5-({4-[3-(1H-indazol-4-yl)-2-pyridin-4-ylpyrazolo[1,5-a]pyrimidin-7-yl]furan-2-yl}methyl)-2,5-diazabicyclo[2.2.1]heptane-2-carboxylate] | 9.1 |
| CCN1C2CCC1CC(c1ccnc3c(-c4ccc(C)c5[nH]ncc45)c(-c4ccncc4)nn13)C2 (centres unmarked) [Example 77, 7-(8-ethyl-8-azabicyclo[3.2.1]oct-3-yl)-3-(7-methyl-1H-indazol-4-yl)-2-pyridin-4-ylpyrazolo[1,5-a]pyrimidine, trifluoroacetate salt] | 17 |
| CCN1C2CCC1CC(c1ccnc3c(-c4cc(F)c(Cl)c5[nH]ncc45)c(-c4ccncc4)nn13)C2 (centres unmarked) [Example 82, 3-(7-Chloro-6-fluoro-1H-indazol-4-yl)-7-(8-ethyl-8-azabicyclo[3.2.1]oct-3-yl)-2-pyridin-4-ylpyrazolo[1,5-a]pyrimidine, trifluoro acetate salt] | 2 |
| Fc1cc(N2C[C@@H]3C[C@H]2CN3C2CCC2)cc(F)c1-c1ccnc2c(-c3cccc4[nH]ncc34)c(-c3ccncc3)nn12 [Example 170, 7-{4-[(1S,4S)-5-cyclobutyl-2,5-diazabicyclo[2.2.1]hept-2-yl]-2,6-difluorophenyl}-3-(1H-indazol-4-yl)-2-pyridin-4-ylpyrazolo[1,5-a]pyrimidine] | < 0.3 |
| CN(C)C(=O)N1C2CCC1CC(c1ccnc3c(-c4cccc5[nH]ncc45)c(-c4ccncc4)nn13)C2 (centres unmarked) [Example 120, 3-[3-(1H-indazol-4-yl)-2-pyridin-4-ylpyrazolo[1,5-a]pyrimidin-7-yl]-N,N-dimethyl-8-azabicyclo[3.2.1]octane-8-carboxamide] | 6.4 |
| CN1C[C@@H]2C[C@H]1CN2c1c(F)c(F)c(-c2ccnc3c(-c4cccc5[nH]ncc45)c(-c4ccncc4)nn23)c(F)c1F [Example 174, 3-(1H-indazol-4-yl)-2-pyridin-4-yl-7-{2,3,5,6-tetrafluoro-4-[(1S,4S)-5-methyl-2,5-diazabicyclo[2.2.1]hept-2-yl]phenyl}pyrazolo[1,5-a]pyrimidine] | 0.4 |
| Fc1cc(N2C[C@@H]3C[C@H]2CN3)ccc1-c1ccnc2c(-c3cccc4[nH]ncc34)c(-c3ccncc3)nn12 [Example 93, 7-{4-[(1S,4S)-2,5-diazabicyclo[2.2.1]hept-2-yl]-2-fluorophenyl}-3-(1H-indazol-4-yl)-2-pyridin-4-ylpyrazolo[1,5-a]pyrimidine] | < 0.3 |
| CS(=O)(=O)N1C2CCC1CC(c1ccnc3c(-c4ccc(Cl)c(O)c4)c(-c4ccncc4)nn13)C2 (centres unmarked) [Example 14, 2-Chloro-5-{7-[8-(methylsulfonyl)-8-azabicyclo[3.2.1]oct-3-yl]-2-pyridin-4-ylpyrazolo[1,5-a]pyrimidin-3-yl}phenol] | 2 |
| CCN1C[C@@H]2C[C@H]1CN2c1ccc(-c2ccnc3c(-c4ccc(F)c(O)c4)c(-c4ccncc4)nn23)cc1 [Example 38, 5-(7-(4-((1S,4S)-5-Ethyl-2,5-diazabicyclo[2.2.1]heptan-2-yl)phenyl)-2-(pyridin-4-yl)pyrazolo[1,5-a]pyrimidin-3-yl)-2-fluorophenol] | 0.5 |
| CN1C[C@@H]2C[C@H]1CN2c1cc(F)cc(F)c1-c1ccnc2c(-c3cccc4[nH]ncc34)c(-c3ccncc3)nn12 [Example 147, 7-{2,4-difluoro-6-[(1S,4S)-5-methyl-2,5-diazabicyclo[2.2.1]hept-2-yl]phenyl}-3-(1H-indazol-4-yl)-2-pyridin-4-ylpyrazolo[1,5-a]pyrimidine] | > 100 |
| c1cc(-c2c(-c3ccncc3)nn3c(-c4ccc(CN5C[C@@H]6C[C@H]5CN6)cc4)ccnc23)c2cn[nH]c2c1 [Example 209, 7-{4-[(1S,4S)-2,5-diazabicyclo[2.2.1]hept-2-ylmethyl]phenyl}-3-(1H-indazol-4-yl)-2-pyridin-4-ylpyrazolo[1,5-a]pyrimidine] | 0.6 |
| CC(C)(C)OC(=O)N1C[C@@H]2C[C@H]1CN2Cc1ccc(-c2ccnc3c(-c4cccc5[nH]ncc45)c(-c4ccncc4)nn23)s1 [Example 196, tert-butyl (1S,4S)-5-({5-[3-(1H-indazol-4-yl)-2-pyridin-4-ylpyrazolo[1,5-a]pyrimidin-7-yl]thiophen-2-yl}methyl)-2,5-diazabicyclo[2.2.1]heptane-2-carboxylate] | 11.5 |
| CC(=O)N1C[C@@H]2C[C@H]1CN2c1ccc(-c2ccnc3c(-c4ccc(F)c(O)c4)c(-c4ccncc4)nn23)cc1 [Example 39, 1-((1S,4S)-5-(4-(3-(4-Fluoro-3-hydroxyphenyl)-2-(pyridin-4-yl)pyrazolo[1,5-a]pyrimidin-7-yl)phenyl)-2,5-diazabicyclo[2.2.1]heptan-2-yl)ethanone] | 0.5 |
| Oc1cc(-c2c(-c3ccncc3)nn3c(-c4ccc(N5C[C@@H]6C[C@H]5CN6)cc4)ccnc23)ccc1F [Example 33, 5-(7-(4-((1S,4S)-2,5-Diazabicyclo[2.2.1]heptan-2-yl)phenyl)-2-(pyridin-4-yl)pyrazolo[1,5-a]pyrimidin-3-yl)-2-fluorophenol] | < 0.3 |
| COc1cc(-c2c(-c3ccncc3)nn3c(-c4ccc(N5C[C@@H]6C[C@H]5CN6)cc4)ccnc23)ccc1Cl [Example 31, 7-(4-((1S,4S)-2,5-Diaza-bicyclo[2.2.1]heptan-2-yl)phenyl)-3-(4-chloro-3-methoxyphenyl)-2-(pyridin-4-yl)pyrazolo[1,5-a]pyrimidine] | 1.8 |

Source: patent US20100029657A1, “Bridged, Bicyclic Heterocyclic or Spiro Bicyclic Heterocyclic Derivatives of Pyrazolo[1, 5-A]Pyrimidines, Methods for Preparation and Uses Thereof” (Wyeth, priority 2008, published 2010)
